Legend:
[1] = tested on: Rag2 GC double knockout mice with adoptively transferred human ILC2s; experiment: Human ILC2-mediated AHR in humanized ILC2 mice; format: in vivo, mouse; settings: i.n. IL-33, agonist three consecutive days
Method: FIGS. 7A-7E: α7nAChR agonist prevents human ILC2s mediated AHR and allergic. (FIG. 7A) Human ILC2s were purified from PBMCs via FACS and cultured (10^4 cells per mL) in the presence of recombinant human IL-33 (20 ng mL^−1), IL-2 (10 ng mL^−1), and IL-7 (20 ng mL^−1), with or without α7nAChR agonist for 24h. In the right panel, data are presented as means of four individual donors. […]
Finally, to confirm the efficacy of α7nAChR agonist treatment in human ILC2-mediated AHR, sorted human ILC2s (hILC2s) were cultured in the presence of rh-IL-2 (20 ng mL^−1) and rh-IL-7 (20 ng mL^−1) for 48 hours. […] These humanized mice were given i.n. rh-IL33 (1 μg per mice) with or without α7nAChR agonists (125 µg mL^−1) for three consecutive days, and then AHR was evaluated (FIG. 7B). […]
For human peripheral ILC2s, peripheral blood mononuclear cells (PBMCs) were first isolated from human fresh blood by diluting the blood 1:1 in PBS, adding to SepMate™-50 separation tubes (STEMCELL Technologies Inc, Vancouver, Canada) prefilled with 15-mL Lymphoprep™ each (Axis-Shield, Oslo, Norway), and centrifuging at 1200 g for 15 minutes. […] On day 4, lung function was measured and BAL was performed and analyzed.

α7 subtype of nAChR = α7 subtype of nAChR (Homo sapiens, UniProt P36544); settings: cited from earlier work
Chain of α7 subtype of nAChR (P36544 23-502): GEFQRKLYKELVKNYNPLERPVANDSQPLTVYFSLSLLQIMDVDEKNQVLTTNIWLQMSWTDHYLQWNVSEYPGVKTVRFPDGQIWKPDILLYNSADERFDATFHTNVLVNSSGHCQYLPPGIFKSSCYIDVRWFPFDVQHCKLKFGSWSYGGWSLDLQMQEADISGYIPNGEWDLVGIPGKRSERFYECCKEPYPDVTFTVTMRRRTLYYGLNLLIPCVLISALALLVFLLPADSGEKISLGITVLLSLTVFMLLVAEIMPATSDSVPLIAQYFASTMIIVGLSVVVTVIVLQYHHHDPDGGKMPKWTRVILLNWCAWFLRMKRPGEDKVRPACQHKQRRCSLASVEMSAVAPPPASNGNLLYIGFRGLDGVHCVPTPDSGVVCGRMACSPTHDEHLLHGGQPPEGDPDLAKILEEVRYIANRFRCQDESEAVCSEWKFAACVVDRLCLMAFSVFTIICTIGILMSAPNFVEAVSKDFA

## COc1ccc(/C=C2\CCCN=C2c2cccnc2)c(OC)c1 [GTS-21, 3-[(3E)-3-[(2,4-dimethoxyphenyl)methylidene]-5,6-dihydro-4H-pyridin-2-yl]pyridine]
[1]
  ILC2-mediated AHR (lung resistance): dampened
  allergic inflammation (eosinophils in BALF, lung ILC2s): dampened
α7 subtype of nAChR
  binding to the α7 subtype: binds

Reference: US20190247376A1, “NICOTINIC ACETYLCHOLINE RECEPTOR AGONIST ATTENUATES ILC2-DEPENDENT AIRWAY HYPERREACTIVITY” (University of Southern California, priority 2016, published 2019)
